Results published in ChEMBL document CHEMBL5303573, “Mapping human microbiome drug metabolism by gut bacteria and their genes” (Nature, 2019).

Assays:
[1] = The drug is tested on Anaerotruncus colihominis strain: DSM17241 for biotransformation. The drug concentrations were measured before and after a 12-h incubation by liquid-chromatography-coupled mass spectrometry (LC–MS); conditions: 2 µM
[2] = roseburia intestinalis, 12 h, 2 µM
Description: The drug is tested on Roseburia intestinalis strain: L1-82 for biotransformation. The drug concentrations were measured before and after a 12-h incubation by liquid-chromatography-coupled mass spectrometry (LC–MS)

[3] = The drug is tested on Eubacterium rectale strain: ATCC33656 for biotransformation. The drug concentrations were measured before and after a 12-h incubation by liquid-chromatography-coupled mass spectrometry (LC–MS); conditions: agathobacter rectalis, 2 µM
[4] = The drug is tested on Collinsella aerofaciens strain: ATCC25986 for biotransformation. The drug concentrations were measured before and after a 12-h incubation by liquid-chromatography-coupled mass spectrometry (LC–MS); conditions: 2 µM
[5] = The drug is tested on Clostridium symbiosum strain: ATCC14940 for biotransformation. The drug concentrations were measured before and after a 12-h incubation by liquid-chromatography-coupled mass spectrometry (LC–MS); conditions: 2 µM
[6] = The drug is tested on Parabacteroides merdae strain: ATCC43184 for biotransformation. The drug concentrations were measured before and after a 12-h incubation by liquid-chromatography-coupled mass spectrometry (LC–MS); conditions: 2 µM
[7] = parabacteroides johnsonii, 12 h, 2 µM
Description: The drug is tested on Parabacteroides johnsonii strain: DSM18315 for biotransformation. The drug concentrations were measured before and after a 12-h incubation by liquid-chromatography-coupled mass spectrometry (LC–MS)

[8] = enterocloster bolteae, 12 h, 2 µM
Description: The drug is tested on Clostridium bolteae strain: ATCCBAA-613 for biotransformation. The drug concentrations were measured before and after a 12-h incubation by liquid-chromatography-coupled mass spectrometry (LC–MS)

[9] = The drug is tested on Escherichia coli strain: BW25113 for biotransformation. The drug concentrations were measured before and after a 12-h incubation by liquid-chromatography-coupled mass spectrometry (LC–MS); conditions: 2 µM
[10] = The drug is tested on Providencia stuartii strain: ATCC25827 for biotransformation. The drug concentrations were measured before and after a 12-h incubation by liquid-chromatography-coupled mass spectrometry (LC–MS); conditions: 2 µM
[11] = The drug is tested on Clostridium sporogenes strain: ATCC15579 for biotransformation. The drug concentrations were measured before and after a 12-h incubation by liquid-chromatography-coupled mass spectrometry (LC–MS); conditions: 2 µM
[12] = The drug is tested on Collinsella intestinalis strain: DSM13280 for biotransformation. The drug concentrations were measured before and after a 12-h incubation by liquid-chromatography-coupled mass spectrometry (LC–MS); conditions: 2 µM
[13] = bacteroides eggerthii, 12 h, 2 µM
Description: The drug is tested on Bacteroides eggerthii strain: DSM20697 for biotransformation. The drug concentrations were measured before and after a 12-h incubation by liquid-chromatography-coupled mass spectrometry (LC–MS)

[14] = The drug is tested on Edwardsiella tarda strain: ATCC23685 for biotransformation. The drug concentrations were measured before and after a 12-h incubation by liquid-chromatography-coupled mass spectrometry (LC–MS); conditions: 2 µM
[15] = bacteroides fragilis, 12 h, 2 µM
Description: The drug is tested on Bacteroides fragilis strain: DS-208 for biotransformation. The drug concentrations were measured before and after a 12-h incubation by liquid-chromatography-coupled mass spectrometry (LC–MS)

[16] = limosilactobacillus reuteri cf48-3a, 12 h, 2 µM
Description: The drug is tested on Lactobacillus reuteri CF48-3A strain: BEI HM-102 for biotransformation. The drug concentrations were measured before and after a 12-h incubation by liquid-chromatography-coupled mass spectrometry (LC–MS)

[17] = The drug is tested on Blautia hansenii strain: DSM20583 for biotransformation. The drug concentrations were measured before and after a 12-h incubation by liquid-chromatography-coupled mass spectrometry (LC–MS); conditions: 2 µM
[18] = The drug is tested on Bacteroides finegoldii strain: DSM17565 for biotransformation. The drug concentrations were measured before and after a 12-h incubation by liquid-chromatography-coupled mass spectrometry (LC–MS); conditions: 2 µM
[19] = The drug is tested on Bacteroides pectinophilus strain: ATCC43243 for biotransformation. The drug concentrations were measured before and after a 12-h incubation by liquid-chromatography-coupled mass spectrometry (LC–MS); conditions: 2 µM
[20] = victivallis vadensis, 12 h, 2 µM
Description: The drug is tested on Victivallis vadensis strain: ATCC BAA-548 for biotransformation. The drug concentrations were measured before and after a 12-h incubation by liquid-chromatography-coupled mass spectrometry (LC–MS)

| SMILES | Bacterial Biotransformation [1] | Bacterial Biotransformation [2] | Bacterial Biotransformation [3] | Bacterial Biotransformation [4] | Bacterial Biotransformation [5] | Bacterial Biotransformation [6] | Bacterial Biotransformation [7] | Bacterial Biotransformation [8] | Bacterial Biotransformation [9] | Bacterial Biotransformation [10] | Bacterial Biotransformation [11] | Bacterial Biotransformation [12] | Bacterial Biotransformation [13] | Bacterial Biotransformation [14] | Bacterial Biotransformation [15] | Bacterial Biotransformation [16] | Bacterial Biotransformation [17] | Bacterial Biotransformation [18] | Bacterial Biotransformation [19] | Bacterial Biotransformation [20] |
| --- | --- | --- | --- | --- | --- | --- | --- | --- | --- | --- | --- | --- | --- | --- | --- | --- | --- | --- | --- | --- |
| C[C@@H]1CC[C@H]2[C@@H](C)C(=O)O[C@@H]3O[C@@]4(C)CC[C@@H]1[C@]32OO4 [ARTEMISININ] | Compound metabolized | Compound metabolized | Compound metabolized | Compound metabolized | Compound metabolized | Compound metabolized | Compound metabolized | Compound metabolized | Compound metabolized | Compound metabolized | Compound metabolized | Compound metabolized | Compound metabolized | Compound metabolized | Compound metabolized | Compound metabolized | Compound metabolized | Compound metabolized | Compound metabolized | Compound metabolized |
| CC[C@H](C)C(=O)O[C@H]1CCC=C2C=C[C@H](C)[C@H](CC[C@@H]3C[C@@H](O)CC(=O)O3)[C@H]21 [MEVASTATIN] | Compound metabolized | Compound metabolized | Compound metabolized | Compound metabolized | Compound metabolized | Compound metabolized | Compound metabolized | Compound metabolized | Compound metabolized | Compound metabolized | Compound metabolized | Compound metabolized | Compound metabolized | Compound metabolized | Compound metabolized | Compound metabolized | Compound metabolized | Compound metabolized | Compound metabolized | Compound metabolized |
| CNC(=C[N+](=O)[O-])NCCSCc1csc(CN(C)C)n1 [NIZATIDINE] | Compound metabolized | Compound NOT metabolized | Compound metabolized | Compound metabolized | Compound metabolized | Compound NOT metabolized | Compound metabolized | Compound metabolized | Compound NOT metabolized | Compound metabolized | Compound NOT metabolized | Compound metabolized | Compound metabolized | Compound metabolized | Compound metabolized | Compound NOT metabolized | Compound metabolized | Compound metabolized | Compound metabolized | Compound NOT metabolized |
| CC(C)(Oc1ccc(CCNC(=O)c2ccc(Cl)cc2)cc1)C(=O)O [BEZAFIBRATE] | Compound NOT metabolized | Compound metabolized | Compound NOT metabolized | Compound metabolized | Compound metabolized | Compound metabolized | Compound NOT metabolized | Compound metabolized | Compound metabolized | Compound metabolized | Compound metabolized | Compound metabolized | Compound metabolized | Compound metabolized | Compound metabolized | Compound metabolized | Compound NOT metabolized | Compound metabolized | Compound metabolized | Compound NOT metabolized |
